Positions of bridges follow the written chain, without caps; N, C: chain ends. Non-standard residues stand in square brackets, D forms with d. No end group written: not given here.
Legend:
[1] = system: DSS-induced acute colitis; conditions: oral treatment, murine model; cited from earlier work
[2] = system: TNBS-induced acute colitis; conditions: oral treatment, murine model; cited from earlier work
[3] = system: patients with mild to moderate ulcerative colitis; test: Double-blind, placebo-controlled, four-week study of rectal dolcanatide in ulcerative colitis patients; assay type: in vivo, human; conditions: for improvement of ulcerative colitis symptoms compared with placebo-treated patients: 6 mg dissolved in saline, intra-rectally every evening for 28 days, 28 patients
Procedure: A double-blind, placebo-controlled, four-week study evaluating 28 patients with mild-to-moderate ulcerative colitis was conducted. Patients received 6 mg Dolcanatide dissolved in saline administered intra-rectally each evening for 28 days.
A double-blind, placebo-controlled, four week study was performed evaluating 28 patients with mild to moderate ulcerative colitis. Subjects were treated with either saline (placebo) or Dolcanatide (SP-333; SEQ ID NO: 9). Six mg of Dolcanatide was dissolved in saline and administered intra-rectally every evening for 28 days.

## dAsn^1-Asp^2-Glu^3-Cys^4-Glu^5-Leu^6-Cys^7-Val^8-Asn^9-Val^10-Ala^11-Cys^12-Thr^13-Gly^14-Cys^15-dLeu^16 ([dN]DECELCVNVACTGC[dL]; disulfide 4-12, 7-15; ends not checked) [Dolcanatide]
[1]
  effect on DSS-induced acute colitis: ameliorate
[2]
  effect on TNBS-induced acute colitis: ameliorate
[3]
  improvement of ulcerative colitis symptoms compared with placebo-treated patients: Improved Ulcerative Colitis Symptoms
[3]; listed as dolcanatide
  improvement of ulcerative colitis symptoms compared with placebo-treated patients: clear signals of improvement
[3]; 6 mg intra-rectally each evening for 28 days
  safety and tolerability: safe and well tolerated
[3]; after 28 days of treatment, 6 mg intra-rectally every evening
  remission from ulcerative colitis symptoms: in remission from their ulcerative colitis symptoms
